Columns and labels:
Human neurokinin (NK1) = target: T1, Human neurokinin (NK1) (Homo sapiens, UniProt P25103); experiment: Radioligand binding, human neurokinin NK1 membranes, filtration, [125I]-Substance P; conditions: compound at 10 μM; [125I]-Substance P, human NK1 membranes
T1 construct: purchased Perkin Elmer Biosignal
Experimental: (§1) Cloned receptor membrane preparations from Perkin Elmer Biosignal™ were used in radioligand binding assays.
(§2) A1 Human δ-opioid (DOP), A2 Human κ-Opioid (KOP), A3 Human Melanocortin (MC3), A4 Human Melanocortin (MC4), A5 Human melanocortin (MC5), A6 Human melanin-concentrating hormone (MCH1), A7 Human μ-opioid (MOP), A8 Human neurokinin (NK1), A9 Human neuropeptide Y (NPY-Y1), A10 Human opioid (ORL1) A11 Mouse urotensin (mUR2)
(§3) Screening experiments were performed in either a 50 μl filtration or 25 μl FlashPlate assay format using the following protocol:
(§4) 44 μl membranes diluted in buffer, 1 μl of compound diluted in DMSO, 5 μl of radioligand diluted in binding buffer.
(§5) The day prior to performing the experiment 50 μl DMSO was added to each well of the compound plates to yield compounds at a final concentration of 10 mM. Daughter plates were then created by diluting the compounds further in DMSO to a concentration of 0.5 mM. The mother plates were frozen immediately.
(§6) Thaw membranes on ice then dilute membranes in binding buffer at a concentration of 1 Unit per well. Dilute radio-ligand to 10 times the final concentration in binding buffer. Add 44 μl of diluted membranes to each well of the deep-well plate. Add 1 μl of DMSO (total value, 5 wells), reference ligand (non-specific value, 3 wells) or compound to the corresponding wells in the deep-well plate. Initiate the reaction by adding 5 μl of radioligand to each well and vortex gently. Incubate at room temperature for 1 hour. During incubation, pre-incubate the Multiscreen Harvest plates in 0.3% PEI. Filter over pre-soaked Multiscreen Harvest plates using a Tomtec Harvester. Wash 9 times with 500 μl of cold 50 mM Tris-HCl pH 7.4 at 4° C. and air-dry for 30 minutes at room temperature under a fume hood. Apply a bottom seal to the Multiscreen Harvest plates. Add 25 μl of MicroScint-0 to each well. Apply TopSeal-A to the plate. Count for 30 seconds per well on TopCount Microplate Scintillation and Luminescence Counter (PerkinElmer) using a count delay of 60 seconds.
(§7) Percentage inhibition was calculated using the following formula: [formula]

[1] = target: T2, Human melanin-concentrating hormone (MCH1) (Homo sapiens, UniProt Q99705); experiment: Radioligand binding, human melanin-concentrating hormone MCH1 membranes, FlashPlate, [125I]-S36057; conditions: compound at 10 μM, [125I]-S36057, human MCH1 membranes
T2 construct: purchased Perkin Elmer Biosignal
T2 sequence (Q99705 whole entry): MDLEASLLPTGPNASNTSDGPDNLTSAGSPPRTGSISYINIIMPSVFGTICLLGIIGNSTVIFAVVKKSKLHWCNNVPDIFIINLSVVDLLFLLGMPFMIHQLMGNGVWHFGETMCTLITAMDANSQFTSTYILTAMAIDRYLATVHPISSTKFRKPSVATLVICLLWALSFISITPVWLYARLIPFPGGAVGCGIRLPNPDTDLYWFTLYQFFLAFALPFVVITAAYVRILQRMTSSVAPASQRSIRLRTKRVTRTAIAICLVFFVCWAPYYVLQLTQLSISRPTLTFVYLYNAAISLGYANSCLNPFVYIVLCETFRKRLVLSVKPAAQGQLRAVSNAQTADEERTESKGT
Experimental: as §1, §2, §3
(§8) 19.5 μl buffer, 0.5 μl of compound diluted in DMSO, 5 μl of radioligand diluted in binding buffer.
as §5
(§9) Immobilize membranes into FlashPlate microplates using PerkinElmer BioSignal's proprietary coating procedure. Dilute radioligand to 5× the final concentration in binding buffer. Add 19.5 μl buffer to each well of the FlashPlate. Add 0.5 μl of DMSO (total value, 5 wells), reference ligand (non-specific value, 3 wells) or compound to the corresponding wells in the FlashPlate microplate. Initiate the reaction by adding 5 μl of radioligand to each well. Apply TopSeal-A onto FlashPlate microplates. Incubate at room temperature for 1 hour in the dark. Count for 30 seconds per well on TopCount Microplate Scintillation and Luminescence Counter (PerkinElmer) using a count delay of 60 seconds.
as §7

[2] = target: T3, Human neuropeptide Y (NPY-Y1) (Homo sapiens, UniProt P25929); experiment: Radioligand binding, human neuropeptide Y NPY-Y1 membranes, FlashPlate, [125I]-PYY; conditions: compound at 10 μM; [125I]-PYY, human NPY-Y1 membranes
T3 construct: purchased Perkin Elmer Biosignal
T3 sequence (P25929 1-384): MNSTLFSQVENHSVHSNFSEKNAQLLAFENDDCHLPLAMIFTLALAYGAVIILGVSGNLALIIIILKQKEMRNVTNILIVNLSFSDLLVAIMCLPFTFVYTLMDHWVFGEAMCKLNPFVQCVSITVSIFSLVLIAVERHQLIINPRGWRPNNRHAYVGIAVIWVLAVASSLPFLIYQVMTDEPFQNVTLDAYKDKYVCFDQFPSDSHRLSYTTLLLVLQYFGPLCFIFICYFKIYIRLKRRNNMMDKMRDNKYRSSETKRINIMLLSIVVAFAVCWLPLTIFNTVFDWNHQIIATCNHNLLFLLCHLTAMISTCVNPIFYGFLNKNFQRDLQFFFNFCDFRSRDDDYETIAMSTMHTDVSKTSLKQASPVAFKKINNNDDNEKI
Experimental: as §1, §2, §3, §8, §5, §9, §7

Human opioid (ORL1) = target: T4, Human opioid (ORL1) (Homo sapiens, UniProt P41146); experiment: Radioligand binding, human opioid ORL1 membranes, FlashPlate, [125I]-Nociceptin; conditions: compound at 10 μM; [125I]-Nociceptin, human ORL1 membranes; 10 µM
T4 construct: purchased Perkin Elmer Biosignal
T4 sequence (P41146 whole entry): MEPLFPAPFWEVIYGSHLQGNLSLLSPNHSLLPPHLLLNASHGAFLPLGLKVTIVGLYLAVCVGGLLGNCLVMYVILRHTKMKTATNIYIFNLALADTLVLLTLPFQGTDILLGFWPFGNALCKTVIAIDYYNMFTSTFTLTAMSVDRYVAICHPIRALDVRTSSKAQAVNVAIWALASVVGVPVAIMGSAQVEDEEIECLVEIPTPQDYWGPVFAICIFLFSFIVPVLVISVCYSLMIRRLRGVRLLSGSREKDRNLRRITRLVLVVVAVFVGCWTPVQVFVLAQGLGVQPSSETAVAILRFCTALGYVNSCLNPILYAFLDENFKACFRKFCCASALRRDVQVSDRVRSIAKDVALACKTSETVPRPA
Experimental: as §1, §2, §3, §8, §5, §9, §7

Mouse urotensin (mUR2) = target: T5, Mouse urotensin (mUR2) (Mus musculus, UniProt Q8VIH9); experiment: Radioligand binding, mouse urotensin mUR2 membranes, FlashPlate, [125I]-Urotensin II; conditions: compound at 10 μM; [125I]-Urotensin II, mouse mUR2 membranes
T5 construct: purchased Perkin Elmer Biosignal
T5 sequence (Q8VIH9 1-385): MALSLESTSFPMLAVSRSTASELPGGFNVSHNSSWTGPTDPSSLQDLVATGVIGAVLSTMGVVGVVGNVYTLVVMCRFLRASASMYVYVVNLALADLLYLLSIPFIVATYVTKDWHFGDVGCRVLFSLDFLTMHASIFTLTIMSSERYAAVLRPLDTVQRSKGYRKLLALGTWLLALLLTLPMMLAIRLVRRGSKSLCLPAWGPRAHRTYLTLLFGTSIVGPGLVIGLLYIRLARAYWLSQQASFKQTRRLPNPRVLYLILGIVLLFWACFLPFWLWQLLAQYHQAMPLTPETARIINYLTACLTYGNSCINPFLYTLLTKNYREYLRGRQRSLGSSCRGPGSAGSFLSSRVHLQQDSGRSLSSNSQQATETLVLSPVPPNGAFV
Experimental: as §1, §2, §3, §8, §5, §9, §7

Human Melanocortin (MC3) = target: T6, Human Melanocortin (MC3) (Homo sapiens, UniProt P41968); experiment: Radioligand binding, human melanocortin MC3 membranes, FlashPlate, [125I]-NDP-αMSH; conditions: compound at 10 μM, [125I]-NDP-αMSH, human MC3 membranes
T6 construct: purchased Perkin Elmer Biosignal
T6 sequence (P41968 whole entry): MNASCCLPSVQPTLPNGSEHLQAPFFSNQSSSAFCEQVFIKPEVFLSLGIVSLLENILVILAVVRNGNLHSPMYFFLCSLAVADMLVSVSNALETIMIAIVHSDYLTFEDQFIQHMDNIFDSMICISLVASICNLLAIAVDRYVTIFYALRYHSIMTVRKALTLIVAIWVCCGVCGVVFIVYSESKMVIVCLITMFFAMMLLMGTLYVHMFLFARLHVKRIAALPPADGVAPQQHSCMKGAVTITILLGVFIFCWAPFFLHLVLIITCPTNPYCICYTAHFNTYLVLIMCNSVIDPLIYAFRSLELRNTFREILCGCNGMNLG
Experimental: as §1, §2, §3, §8, §5, §9, §7

Human δ-opioid (DOP) = target: T7, Human δ-opioid (DOP) (Homo sapiens, UniProt P41143); experiment: Radioligand binding, human δ-opioid (DOP) membranes, FlashPlate, [3H]-Bremazocine; conditions: compound at 10 μM; [3H]-Bremazocine, human DOP membranes
T7 construct: purchased Perkin Elmer Biosignal
T7 sequence (P41143 whole entry): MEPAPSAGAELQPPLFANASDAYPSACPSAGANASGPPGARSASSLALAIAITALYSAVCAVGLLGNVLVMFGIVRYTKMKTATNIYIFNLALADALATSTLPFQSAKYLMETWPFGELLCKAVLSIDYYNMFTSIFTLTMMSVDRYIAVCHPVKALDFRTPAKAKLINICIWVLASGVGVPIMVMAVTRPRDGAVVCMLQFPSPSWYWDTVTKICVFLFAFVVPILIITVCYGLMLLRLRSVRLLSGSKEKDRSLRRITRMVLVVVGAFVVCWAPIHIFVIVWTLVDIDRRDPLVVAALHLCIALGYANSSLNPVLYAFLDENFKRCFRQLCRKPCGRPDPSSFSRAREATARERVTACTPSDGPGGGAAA
Experimental: as §1, §2, §3, §8, §5, §9, §7

Human melanocortin (MC5) = target: T8, Human melanocortin (MC5) (Homo sapiens, UniProt P33032); experiment: Radioligand binding, human melanocortin MC5 membranes, FlashPlate, [125I]-NDP-αMSH; conditions: compound at 10 μM; [125I]-NDP-αMSH, human MC5 membranes
T8 construct: purchased Perkin Elmer Biosignal
T8 sequence (P33032 whole entry): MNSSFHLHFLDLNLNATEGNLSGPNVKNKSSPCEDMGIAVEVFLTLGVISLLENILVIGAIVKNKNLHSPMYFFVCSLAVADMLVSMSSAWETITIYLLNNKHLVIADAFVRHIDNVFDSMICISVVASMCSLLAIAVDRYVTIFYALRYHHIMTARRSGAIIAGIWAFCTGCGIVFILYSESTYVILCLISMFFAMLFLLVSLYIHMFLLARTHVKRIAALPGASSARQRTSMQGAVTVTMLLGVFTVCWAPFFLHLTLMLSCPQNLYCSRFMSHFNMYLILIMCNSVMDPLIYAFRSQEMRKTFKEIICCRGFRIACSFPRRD
Experimental: as §1, §2, §3, §8, §5, §9, §7

Human Melanocortin (MC4) = target: T9, Human Melanocortin (MC4) (Homo sapiens, UniProt P32245); experiment: Radioligand binding, human melanocortin MC4 membranes, FlashPlate, [125I]-NDP-αMSH; conditions: compound at 10 μM; [125I]-NDP-αMSH, human MC4 membranes
T9 construct: purchased Perkin Elmer Biosignal
T9 sequence (P32245 whole entry): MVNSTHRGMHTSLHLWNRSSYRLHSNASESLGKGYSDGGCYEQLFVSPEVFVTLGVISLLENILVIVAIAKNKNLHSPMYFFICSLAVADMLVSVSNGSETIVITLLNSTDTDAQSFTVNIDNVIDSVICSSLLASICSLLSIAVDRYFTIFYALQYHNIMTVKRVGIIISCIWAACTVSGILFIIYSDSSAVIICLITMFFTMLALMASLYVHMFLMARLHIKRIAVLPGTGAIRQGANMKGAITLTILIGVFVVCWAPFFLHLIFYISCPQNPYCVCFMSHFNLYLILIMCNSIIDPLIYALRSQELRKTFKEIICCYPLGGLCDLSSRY
Experimental: as §1, §2, §3, §8, §5, §9, §7

Human κ-Opioid (KOP) = target: T10, Human κ-Opioid (KOP) (Homo sapiens, UniProt P41145); experiment: Radioligand binding, human κ-opioid (KOP) membranes, filtration, [3H]-Diprenorphine; conditions: compound at 10 μM, [3H]-Diprenorphine, human KOP membranes
T10 construct: purchased Perkin Elmer Biosignal
T10 sequence (P41145 whole entry): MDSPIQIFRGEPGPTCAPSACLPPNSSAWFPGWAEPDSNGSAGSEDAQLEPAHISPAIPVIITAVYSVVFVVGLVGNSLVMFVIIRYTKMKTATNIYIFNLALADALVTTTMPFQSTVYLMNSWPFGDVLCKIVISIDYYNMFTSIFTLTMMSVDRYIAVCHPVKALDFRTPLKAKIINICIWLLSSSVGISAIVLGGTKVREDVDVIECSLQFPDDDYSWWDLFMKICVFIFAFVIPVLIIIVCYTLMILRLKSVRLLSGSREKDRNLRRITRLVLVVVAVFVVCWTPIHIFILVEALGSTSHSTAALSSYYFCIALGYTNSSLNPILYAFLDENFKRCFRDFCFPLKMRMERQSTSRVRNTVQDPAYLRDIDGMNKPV
Experimental: as §1, §2, §3, §4, §5, §6, §7

Human μ-opioid (MOP) = target: T11, Human μ-opioid (MOP) (Homo sapiens, UniProt P35372); experiment: Radioligand binding, human μ-opioid (MOP) membranes, FlashPlate, [3H]-Naloxone; conditions: compound at 10 μM, [3H]-Naloxone, human MOP membranes
T11 construct: purchased Perkin Elmer Biosignal
T11 sequence (P35372 whole entry): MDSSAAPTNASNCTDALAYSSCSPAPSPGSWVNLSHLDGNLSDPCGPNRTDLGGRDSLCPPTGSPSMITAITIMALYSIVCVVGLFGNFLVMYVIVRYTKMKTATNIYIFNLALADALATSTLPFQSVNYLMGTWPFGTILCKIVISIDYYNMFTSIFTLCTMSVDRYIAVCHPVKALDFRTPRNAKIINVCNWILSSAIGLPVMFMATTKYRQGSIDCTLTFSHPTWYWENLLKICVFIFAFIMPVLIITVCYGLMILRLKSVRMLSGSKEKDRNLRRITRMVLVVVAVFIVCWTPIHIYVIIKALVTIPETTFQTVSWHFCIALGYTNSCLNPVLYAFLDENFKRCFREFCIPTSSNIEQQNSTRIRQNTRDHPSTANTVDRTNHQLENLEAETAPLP
Experimental: as §1, §2, §3, §8, §5, §9, §7

T1 sequence (P25103 whole entry): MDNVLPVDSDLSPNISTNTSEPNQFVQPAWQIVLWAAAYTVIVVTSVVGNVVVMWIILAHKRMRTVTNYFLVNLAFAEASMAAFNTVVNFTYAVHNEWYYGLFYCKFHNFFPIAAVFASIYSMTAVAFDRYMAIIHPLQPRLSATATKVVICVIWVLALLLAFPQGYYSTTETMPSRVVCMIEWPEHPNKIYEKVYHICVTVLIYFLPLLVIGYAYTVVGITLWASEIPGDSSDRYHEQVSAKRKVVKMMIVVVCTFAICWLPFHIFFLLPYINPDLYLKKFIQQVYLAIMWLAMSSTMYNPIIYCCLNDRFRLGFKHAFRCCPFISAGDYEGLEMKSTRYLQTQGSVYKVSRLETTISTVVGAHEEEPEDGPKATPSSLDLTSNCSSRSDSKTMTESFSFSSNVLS

Row | SMILES | A8: inhibition of radioligand binding (Human neurokinin (NK1)) | A6: inhibition of radioligand binding ([1]; 10 µM) | A9: inhibition of radioligand binding [2] | A10: inhibition of radioligand binding (Human opioid (ORL1)) | A11: inhibition of radioligand binding (Mouse urotensin (mUR2)) | A3: inhibition of radioligand binding (Human Melanocortin (MC3); 10 µM) | A1: inhibition of radioligand binding (Human δ-opioid (DOP)) | A5: inhibition of radioligand binding (Human melanocortin (MC5)) | A4: inhibition of radioligand binding (Human Melanocortin (MC4)) | A2: inhibition of radioligand binding (Human κ-Opioid (KOP)) | A7: inhibition of radioligand binding (Human μ-opioid (MOP)) | A6: inhibition of radioligand binding [1] | A3: inhibition of radioligand binding (Human Melanocortin (MC3)) | A2: inhibition of radioligand binding (Human κ-Opioid (KOP); 10 µM) | A7: inhibition of radioligand binding (Human μ-opioid (MOP); 10 µM)
1 | NCCC(=O)NC1C(OCc2ccc3ccccc3c2)OC(COCc2ccc(Cl)cc2)C(O)C1OCc1ccccc1 (single isomer, unassigned) [compound 452] | + (“+” indicates greater than 50% inhibition at 10 μM) | − (“−” indicates less than 50% inhibition at 10 μM) | − (“−” indicates less than 50% inhibition at 10 μM) | − (“−” indicates less than 50% inhibition at 10 μM) | − (“−” indicates less than 50% inhibition at 10 μM) | − (“−” indicates less than 50% inhibition at 10 μM) | − (“−” indicates less than 50% inhibition at 10 μM) | + (“+” indicates greater than 50% inhibition at 10 μM) | + (“+” indicates greater than 50% inhibition at 10 μM) | − (“−” indicates less than 50% inhibition at 10 μM) | − (“−” indicates less than 50% inhibition at 10 μM) | – | – | – | –
2 | NCCC(=O)NC1C(OCc2ccc3ccccc3c2)OC(COCc2ccc(Cl)cc2)C(O)C1OCc1ccccc1 (single isomer, unassigned) [compound 453] | + (“+” indicates greater than 50% inhibition at 10 μM) | + (“+” indicates greater than 50% inhibition at 10 μM) | − (“−” indicates less than 50% inhibition at 10 μM) | − (“−” indicates less than 50% inhibition at 10 μM) | − (“−” indicates less than 50% inhibition at 10 μM) | + (“+” indicates greater than 50% inhibition at 10 μM) | − (“−” indicates less than 50% inhibition at 10 μM) | + (“+” indicates greater than 50% inhibition at 10 μM) | + (“+” indicates greater than 50% inhibition at 10 μM) | − (“−” indicates less than 50% inhibition at 10 μM) | − (“−” indicates less than 50% inhibition at 10 μM) | – | – | – | –
3 | NCCCC(=O)NC1C(OCc2ccc3ccccc3c2)OC(COCc2ccc3ccccc3c2)C(O)C1OCc1ccc(Cl)cc1 (single isomer, unassigned) [compound 454] | + (“+” indicates greater than 50% inhibition at 10 μM) | – | − (“−” indicates less than 50% inhibition at 10 μM) | + (“+” indicates greater than 50% inhibition at 10 μM) | − (“−” indicates less than 50% inhibition at 10 μM) | – | − (“−” indicates less than 50% inhibition at 10 μM) | + (“+” indicates greater than 50% inhibition at 10 μM) | + (“+” indicates greater than 50% inhibition at 10 μM) | – | – | + (“+” indicates greater than 50% inhibition at 10 μM) | + (“+” indicates greater than 50% inhibition at 10 μM) | − (“−” indicates less than 50% inhibition at 10 μM) | + (“+” indicates greater than 50% inhibition at 10 μM)
4 | NCCCC(=O)NC1C(OCc2ccc3ccccc3c2)OC(COCc2ccc3ccccc3c2)C(O)C1OCc1ccc(Cl)cc1 (single isomer, unassigned) [compound 455] | + (“+” indicates greater than 50% inhibition at 10 μM) | – | − (“−” indicates less than 50% inhibition at 10 μM) | − (“−” indicates less than 50% inhibition at 10 μM) | − (“−” indicates less than 50% inhibition at 10 μM) | – | − (“−” indicates less than 50% inhibition at 10 μM) | + (“+” indicates greater than 50% inhibition at 10 μM) | + (“+” indicates greater than 50% inhibition at 10 μM) | – | – | + (“+” indicates greater than 50% inhibition at 10 μM) | + (“+” indicates greater than 50% inhibition at 10 μM) | + (“+” indicates greater than 50% inhibition at 10 μM) | + (“+” indicates greater than 50% inhibition at 10 μM)
